The source of these data is ChEMBL document CHEMBL4725230, “Syntheses and pharmacokinetic evaluations of four metabolites of 2-(4-(2-((1H-benzo[d]imidazol-2-yl)thio)ethyl)piperazin-1-yl)-N-(6-methyl-2,4-bis-(methylthio)pyridin-3-yl)acetamide hydrochloride [K-604], an acyl-CoA:cholesterol O-acyltransferase-1 inhibitor” (Bioorg Med Chem, 2020).

This data set is described as follows: Retention time of the compound in human liver microsomes after 5 mins in presence of NADPH by LC-MS/MS analysis. Format: ADME, Microsome. (In general: Liver microsomes are a subcellular fraction often used to study metabolism.)

Molecules are shown by their SMILES.

As for `CSc1cc(C)nc(SC)c1NC(=O)CN1CCN(CCSc2nc3cc(O)ccc3[nH]2)CC1`, the Retention_time worked out at 3.21 min.
